± gives the expanded uncertainty stated by the source.
Test: xn = mol fraction of the nth substance listed
Settings: for mass density: 101 kPa, Liquid

CC(C)=O [acetone] + Cc1ccccc1
Settings | mass density [kg/m3] | surface tension liquid-gas [mN/m]
288.15 K, x1 = 0.1 | 866.62 ± 0.26 | 28.54 ± 0.6
288.15 K, x1 = 0.2 | 861.43 ± 0.26 | 27.86 ± 0.59
288.15 K, x1 = 0.3 | 855.6 ± 0.27 | 27.32 ± 0.58
288.15 K, x1 = 0.4 | 849.5 ± 0.28 | 26.98 ± 0.57
288.15 K, x1 = 0.5 | 842.16 ± 0.29 | 26.58 ± 0.57
288.15 K, x1 = 0.6 | 834.94 ± 0.29 | 25.91 ± 0.56
288.15 K, x1 = 0.6999 | 826.67 ± 0.3 | 25.22 ± 0.55
288.15 K, x1 = 0.8 | 817.43 ± 0.31 | 24.68 ± 0.54
288.15 K, x1 = 0.9 | 807.56 ± 0.32 | 24.24 ± 0.53
288.15 K, x1 = 1 | 795.65 ± 0.34 | 24.34 ± 0.53
293.15 K, x1 = 0.1 | 861.94 ± 0.26 | –
293.15 K, x1 = 0.2 | 856.62 ± 0.27 | –
293.15 K, x1 = 0.3 | 850.69 ± 0.28 | –
293.15 K, x1 = 0.4 | 844.49 ± 0.28 | –
293.15 K, x1 = 0.5 | 837.08 ± 0.29 | –
293.15 K, x1 = 0.6 | 829.76 ± 0.3 | –
293.15 K, x1 = 0.6999 | 821.37 ± 0.31 | –
293.15 K, x1 = 0.8 | 812.03 ± 0.32 | –
293.15 K, x1 = 0.9 | 802.05 ± 0.33 | –
293.15 K, x1 = 1 | 790.04 ± 0.34 | –
298.15 K, x1 = 0.1 | 857.19 ± 0.27 | 27.42 ± 0.58
298.15 K, x1 = 0.2 | 851.77 ± 0.28 | 26.78 ± 0.57
298.15 K, x1 = 0.3 | 845.76 ± 0.28 | 26.27 ± 0.56
298.15 K, x1 = 0.4 | 839.43 ± 0.29 | 25.87 ± 0.56
298.15 K, x1 = 0.5 | 831.96 ± 0.3 | 25.26 ± 0.55
298.15 K, x1 = 0.6 | 824.52 ± 0.31 | 24.69 ± 0.54
298.15 K, x1 = 0.6999 | 816.05 ± 0.32 | 24.14 ± 0.53
298.15 K, x1 = 0.8 | 806.58 ± 0.33 | 23.46 ± 0.52
298.15 K, x1 = 0.9 | 796.47 ± 0.34 | 23.01 ± 0.51
298.15 K, x1 = 1 | 784.33 ± 0.35 | 23.02 ± 0.51
303.15 K, x1 = 0.1 | 852.43 ± 0.27 | –
303.15 K, x1 = 0.2 | 846.92 ± 0.28 | –
303.15 K, x1 = 0.3 | 840.8 ± 0.29 | –
303.15 K, x1 = 0.4 | 834.37 ± 0.3 | –
303.15 K, x1 = 0.5 | 826.83 ± 0.31 | –
303.15 K, x1 = 0.6 | 819.3 ± 0.31 | –
303.15 K, x1 = 0.6999 | 810.71 ± 0.32 | –
303.15 K, x1 = 0.8 | 801.09 ± 0.33 | –
303.15 K, x1 = 0.9 | 790.88 ± 0.34 | –
303.15 K, x1 = 1 | 778.57 ± 0.36 | –
308.15 K, x1 = 0.1 | 847.66 ± 0.28 | 26.25 ± 0.56
308.15 K, x1 = 0.2 | 842.06 ± 0.29 | 25.78 ± 0.55
308.15 K, x1 = 0.3 | 835.83 ± 0.29 | 25.21 ± 0.55
308.15 K, x1 = 0.4 | 829.3 ± 0.3 | 24.88 ± 0.54
308.15 K, x1 = 0.5 | 821.64 ± 0.31 | 24.2 ± 0.53
308.15 K, x1 = 0.6 | 814 ± 0.32 | 23.59 ± 0.52
308.15 K, x1 = 0.6999 | 805.29 ± 0.33 | 22.92 ± 0.51
308.15 K, x1 = 0.8 | 795.56 ± 0.34 | 22.51 ± 0.5
308.15 K, x1 = 0.9 | 785.21 ± 0.35 | 21.83 ± 0.49
308.15 K, x1 = 1 | 772.76 ± 0.36 | 21.72 ± 0.49
313.15 K, x1 = 0.1 | 842.86 ± 0.29 | –
313.15 K, x1 = 0.2 | 837.17 ± 0.29 | –
313.15 K, x1 = 0.3 | 830.83 ± 0.3 | –
313.15 K, x1 = 0.4 | 824.2 ± 0.31 | –
313.15 K, x1 = 0.5 | 816.43 ± 0.32 | –
313.15 K, x1 = 0.6 | 808.68 ± 0.33 | –
313.15 K, x1 = 0.6999 | 799.88 ± 0.33 | –
313.15 K, x1 = 0.8 | 790.01 ± 0.35 | –
313.15 K, x1 = 0.9 | 779.49 ± 0.36 | –
313.15 K, x1 = 1 | 766.91 ± 0.37 | –
318.15 K, x1 = 0.1 | 838.04 ± 0.29 | 24.97 ± 0.54
318.15 K, x1 = 0.2 | 832.23 ± 0.3 | 24.75 ± 0.54
318.15 K, x1 = 0.3 | 825.82 ± 0.31 | 24.09 ± 0.53
318.15 K, x1 = 0.4 | 819.06 ± 0.31 | 23.74 ± 0.52
318.15 K, x1 = 0.5 | 811.19 ± 0.32 | 22.82 ± 0.51
318.15 K, x1 = 0.6 | 803.32 ± 0.33 | 22.67 ± 0.51
318.15 K, x1 = 0.6999 | 794.39 ± 0.34 | 21.7 ± 0.49
318.15 K, x1 = 0.8 | 784.39 ± 0.35 | 21.34 ± 0.49
318.15 K, x1 = 0.9 | 773.74 ± 0.36 | 20.48 ± 0.48
318.15 K, x1 = 1 | 760.99 ± 0.38 | 20.38 ± 0.47
323.15 K, x1 = 0.1 | 833.22 ± 0.3 | –
323.15 K, x1 = 0.2 | 827.29 ± 0.3 | –
323.15 K, x1 = 0.3 | 820.75 ± 0.31 | –
323.15 K, x1 = 0.4 | 813.89 ± 0.32 | –
323.15 K, x1 = 0.5 | 805.91 ± 0.33 | –
323.15 K, x1 = 0.6 | 797.91 ± 0.34 | –
323.15 K, x1 = 0.6999 | 788.88 ± 0.35 | –
323.15 K, x1 = 0.8 | 778.74 ± 0.36 | –
323.15 K, x1 = 0.9 | 767.94 ± 0.37 | –
323.15 K, x1 = 1 | 755.02 ± 0.39 | –
328.15 K, x1 = 0.1 | 828.34 ± 0.3 | 23.63 ± 0.52
328.15 K, x1 = 0.2 | 822.32 ± 0.31 | 23.48 ± 0.52
328.15 K, x1 = 0.3 | 815.67 ± 0.32 | 23.04 ± 0.51
328.15 K, x1 = 0.4 | 808.7 ± 0.33 | 22.7 ± 0.51
328.15 K, x1 = 0.5 | 800.59 ± 0.34 | 21.99 ± 0.5
328.15 K, x1 = 0.6 | 792.48 ± 0.35 | 21.06 ± 0.48
328.15 K, x1 = 0.6999 | 783.31 ± 0.36 | 20.65 ± 0.48
328.15 K, x1 = 0.8 | 773.01 ± 0.37 | 19.95 ± 0.47
328.15 K, x1 = 0.9 | 762.08 ± 0.38 | 19.32 ± 0.46
328.15 K, x1 = 1 | 748.98 ± 0.39 | 19.15 ± 0.46

Reference: the NIST ThermoML archive (doi:10.1021/je7000182)
